From US12208110B2 (priority 2020, dated 2025)
Where two headings read alike, the source gives them in different places.

Legend:
Assay type in all cases: cell-based
[1] = system: RSV-Fluc (Recombinant Respiratory Syncytial virus strain A2 containing the firefly luciferase reporter); assay: microbe, parasite or virus in culture; conditions: read-out: RSV-Fluc EC50 (nM, NHBE)
SARS-CoV-2 = assay: microbe, parasite or virus in culture
MT-4 cells = assay: MT4 cytotoxicity analysis (CellTiter-Glo)
Method in brief: (§1)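 MT-4 cells were exposed in quadruplicate to 3-fold serial compound dilutions (DMSO stocks 2.5 uM to 10 mM) for five days at 37 °C. Viability was read by CellTiter-Glo luminescence.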

[2] = MT4 cytotoxicity analysis (CellTiter-Glo); conditions: human, MT4 CC50 (nM)
Method in brief: as §1

[3] = human respiratory syncytial virus, NHBE, 72 h
[4] = Severe acute respiratory syndrome coronavirus 2, 48 h
[5] = MT-4 cells, five days, CellTiter-Glo, read-out: MT4 CC50

Structure (SMILES)	EC50 [1, 3]	EC50 (SARS-CoV-2; [4])	CC50 (MT-4 cells; human, 5 days)	EC50 ([1]; NHBE cells, RSV-Fluc MOI 0.1, three days, luciferase readout)	EC50 (SARS-CoV-2)	CC50 (MT-4 cells; [5])	CC50 at 5 days [2]
CCCCCCCCCCCCCCCCCCOC[C@@H](OCc1ccccc1)C(C)OP(=O)(O)OC[C@H]1O[C@@](C#N)(c2ccc3c(N)ncnn23)[C@H](O)[C@@H]1O (single isomer, unassigned) [Example 12]	240 nM	8.4 µM	10 µM	–	–	–	–
CCCCCCCCCCCCCCCCCCOC[C@@H](OCc1ccccc1)C(C)OP(=O)(O)OC[C@H]1O[C@@](C#N)(c2ccc3c(N)ncnn23)[C@H](O)[C@@H]1O (single isomer, unassigned) [Example 13]	–	–	29 µM	240 nM	9.5 µM	–	–
CCCCCCCCCCCCCCCCCCOC[C@H](COP(=O)(O)OC[C@H]1O[C@@](C#N)(c2ccc3c(N)ncnn23)[C@H](O)[C@@H]1O)N(C)Cc1cc(F)cc(C#N)c1 [Example 6, ((2R,3S,4R,5R)-5-(4-aminopyrrolo[2,1-f][1,2,4]triazin-7-yl)-5-cyano-3,4-dihydroxytetrahydrofuran-2-yl)methyl ((R)-2-((3-cyano-5-fluorobenzyl)(methyl)amino)-3-(octadecyloxy)propyl) hydrogen phosphate]	570 nM	10 µM	50 µM	–	–	–	–
CCCCCCCCCCCCCCCCCCOC[C@H](COP(=O)(O)OC[C@H]1O[C@@](C#N)(c2ccc3c(N)ncnn23)[C@H](O)[C@@H]1O)OC(=O)c1ccccc1 [Example 17, (2R)-1-(((((2R,3S,4R,5R)-5-(4-aminopyrrolo[2,1-f][1,2,4]triazin-7-yl)-5-cyano-3,4-dihydroxytetrahydrofuran-2-yl)methoxy)(hydroxy)phosphoryl)oxy)-3-(octadecyloxy)propan-2-yl benzoate]	120 nM	0.89 µM	50 µM	–	–	–	–
CCCCCCCCCOCCCOP(=O)(O)OC[C@H]1O[C@@](C#N)(c2ccc3c(N)ncnn23)[C@H](O)[C@@H]1O [Example 25, ((2R,3S,4R,5R)-5-(4-Aminopyrrolo[2,1-f][1,2,4]triazin-7-yl)-5-cyano-3,4-dihydroxytetrahydrofuran-2-yl)methyl (3-(nonyloxy)propyl) hydrogen phosphate]	5000 nM	10 µM	–	–	–	50 µM	–
CCCCCCCCOCCOP(=O)(O)OC[C@H]1O[C@@](C#N)(c2ccc3c(N)ncnn23)[C@H](O)[C@@H]1O [Example 26, ((2R,3S,4R,5R)-5-(4-Aminopyrrolo[2,1-f][1,2,4]triazin-7-yl)-5-cyano-3,4-dihydroxytetrahydrofuran-2-yl)methyl (2-(octyloxy)ethyl) hydrogen phosphate]	5000 nM	10 µM	–	–	–	50 µM	–
CCCCCCCCCCCOCCOP(=O)(O)OC[C@H]1O[C@@](C#N)(c2ccc3c(N)ncnn23)[C@H](O)[C@@H]1O [Example 27, ((2R,3S,4R,5R)-5-(4-Aminopyrrolo[2,1-f][1,2,4]triazin-7-yl)-5-cyano-3,4-dihydroxytetrahydrofuran-2-yl)methyl (2-(undecyloxy)ethyl) hydrogen phosphate]	5000 nM	10 µM	–	–	–	50 µM	–
CCCCCCCCCCCCCCCCCCOC[C@H](COP(=O)(O)OC[C@H]1O[C@@](C#N)(c2ccc3c(N)ncnn23)[C@H](O)[C@@H]1O)Oc1ccccc1C(=O)O [Example 38, 2-(((2R)-1-(((((2R,3S,4R,5R)-5-(4-aminopyrrolo[2,1-f][1,2,4]triazin-7-yl)-5-cyano-3,4-dihydroxytetrahydrofuran-2-yl)methoxy)(hydroxy)phosphoryl)oxy)-3-(octadecyloxy)propan-2-yl)oxy)benzoic acid]	160 nM	–	50 µM	–	–	–	–
CCCCCCCCCCCCCCCCSCCCOP(=O)(O)OC[C@H]1O[C@@](C#N)(c2ccc3c(N)ncnn23)[C@H](O)[C@@H]1O [Example 65, [(2R,3S,4R,5R)-5-(4-Aminopyrrolo[2,1-f][1,2,4]triazin-7-yl)-5-cyano-3,4-dihydroxy-tetrahydrofuran-2-yl]methyl 3-hexadecylsulfanylpropyl hydrogen phosphate]	–	–	50 µM	–	–	–	–
CCCCCCCCCCCCCCCCCCC[C@H](COCc1ccc(C#N)cc1F)OP(=O)(O)OC[C@H]1O[C@@](C#N)(c2ccc3c(N)ncnn23)[C@H](O)[C@@H]1O [Example 69, ((2R,3S,4R,5R)-5-(4-aminopyrrolo[2,1-f][1,2,4]triazin-7-yl)-5-cyano-3,4-dihydroxytetrahydrofuran-2-yl)methyl ((R)-1-((4-cyano-2-fluorobenzyl)oxy)henicosan-2-yl) hydrogen phosphate]	400 nM	10 µM	–	–	–	–	48000 nM
CCCCCCCCCCCCCCCCCCC[C@H](COP(=O)(O)OC[C@H]1O[C@@](C#N)(c2ccc3c(N)ncnn23)[C@H](O)[C@@H]1O)OCc1ccc(C#N)c(F)c1 [Example 71, ((2R,3S,4R,5R)-5-(4-aminopyrrolo[2,1-f][1,2,4]triazin-7-yl)-5-cyano-3,4-dihydroxytetrahydrofuran-2-yl)methyl ((R)-2-((4-cyano-3-fluorobenzyl)oxy)henicosyl) hydrogen phosphate]	68 nM	0.079 µM	–	–	–	–	900 nM
CCCCCCCCCCCCCCCCCCC[C@H](COP(=O)(O)OC[C@H]1O[C@@](C#N)(c2ccc3c(N)ncnn23)[C@H](O)[C@@H]1O)OCc1ccccc1 [Example 72, ((2R,3S,4R,5R)-5-(4-aminopyrrolo[2,1-f][1,2,4]triazin-7-yl)-5-cyano-3,4-dihydroxytetrahydrofuran-2-yl)methyl ((R)-2-(benzyloxy)henicosyl) hydrogen phosphate]	190 nM	1.1 µM	–	–	–	–	3800 nM
CCCCCCCCCCCCCCC#CC[C@H](COP(=O)(O)OC[C@H]1O[C@@](C#N)(c2ccc3c(N)ncnn23)[C@H](O)[C@@H]1O)OCc1ccccc1 [Example 73, ((2R,3S,4R,5R)-5-(4-aminopyrrolo[2,1-f][1,2,4]triazin-7-yl)-5-cyano-3,4-dihydroxytetrahydrofuran-2-yl)methyl ((R)-2-(benzyloxy)nonadec-4-yn-1-yl) hydrogen phosphate]	58 nM	0.43 µM	–	–	–	–	3500 nM
CCCCCCCCCCCCCCC#CC[C@H](COP(=O)(O)OC[C@H]1O[C@@](C#N)(c2ccc3c(N)ncnn23)[C@H](O)[C@@H]1O)OCc1cc(F)cc(C#N)c1 [Example 74, ((2R,3S,4R,5R)-5-(4-aminopyrrolo[2,1-f][1,2,4]triazin-7-yl)-5-cyano-3,4-dihydroxytetrahydrofuran-2-yl)methyl ((R)-2-((3-cyano-5-fluorobenzyl)oxy)nonadec-4-yn-1-yl) hydrogen phosphate]	24 nM	0.19 µM	–	–	–	–	300 nM
CCCCCCCCCCCCCCC#CC[C@H](COP(=O)(O)OC[C@H]1O[C@@](C#N)(c2ccc3c(N)ncnn23)[C@H](O)[C@@H]1O)OCc1ccc(C#N)c(F)c1 [Example 75, ((2R,3S,4R,5R)-5-(4-aminopyrrolo[2,1-f][1,2,4]triazin-7-yl)-5-cyano-3,4-dihydroxytetrahydrofuran-2-yl)methyl ((R)-2-((4-cyano-3-fluorobenzyl)oxy)nonadec-4-yn-1-yl) hydrogen phosphate]	17 nM	0.072 µM	–	–	–	–	230 nM
